Experimental data reported in article PMC7054460 (2020).

Assays:
[1] = tested on: Y2 (DNA, duplex, free-base (2H) porphyrin-dU (porphyrin via rigid acetylene linker) at 10 of strand 1 and at 4 of strand 2) CGCATTATATGC/GCATATAATGCG; test: CD titration (porphyrin exciton coupling), Scatchard fit; conditions: Na+ 100 mM NaCl + 100 mM Na2HPO4 (assumed from Fig. 2 legend); 4 μM DNA; EtBr 40-800 μM; apparent; local site between adjacent porphyrins; buffer not given; per base
[2] = tested on: Y1 (DNA, duplex, free-base (2H) porphyrin-dU (porphyrin via rigid acetylene linker) at 5 of strand 1 and at 4 of strand 2) CGCATTATATGC/GCATATAATGCG; test: as above; conditions: Na+ 100 mM NaCl + 100 mM Na2HPO4 (assumed from Fig. 2 legend); 4 μM DNA; EtBr 40-800 μM; apparent; global intercalation; buffer not given; per base

CC[n+]1c(-c2ccccc2)c2cc(N)ccc2c2ccc(N)cc21
Ka (association binding constant) [1]: 3.54 ± 0.4 × 10^5 M^-1
Ka (association binding constant) [2]: 1.43 ± 0.2 × 10^5 M^-1
